The text below walks through data of PMC5021751, “Discovery of DNA dyes Hoechst 34580 and 33342 as good candidates for inhibiting amyloid beta formation: in silico and in vitro study” (Journal of Computer-Aided Molecular Design, 2016).

In this assay the target is T1, Aβ42 (amyloid beta) (Homo sapiens, UniProt P05067).
T1 construct: gene APP
Nature of the assay: Thioflavin T fibrillization assay with purified Aβ[…] peptide. The format is biochemical.

SMILES strings stand for the structures. Where two headings read alike, the source gives them in different places.

T1 sequence (P05067 672-713 limits assumed): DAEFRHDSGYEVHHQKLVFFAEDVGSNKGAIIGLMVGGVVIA

For orientation: IC50 means the concentration at which inhibition is half-maximal. For `CCOc1ccc(-c2nc3cc(-c4nc5cc(N6CCN(C)CC6)ccc5[nH]4)ccc3[nH]2)cc1` [Hoechst 33342], the IC50 (read-out: IC50) amounted to 680 ± 50 nM. In turn, `CN1CCN(c2ccc3[nH]c(-c4ccc5[nH]c(-c6ccc(N(C)C)cc6)nc5c4)nc3c2)CC1` [Hoechst 34580] showed an IC50 of 860 ± 50 nM.
